Test results from patent publication US20190099394A1, “METHODS OF IMPROVING MOTOR FUNCTION USING KETONE SUPPLEMENTATION” (priority 2016, published 2019).

Assays:
Sprague-Dawley rats = assay: accelerating rotarod test, four month old Sprague-Dawley rats; format: in vivo, rat; conditions: for motor function (accelerating rotarod) compared to the control group: 5 g/kg once daily oral gavage or diet, at both 24 hours and 7 days after dietary treatment, FIG. 1; for time able to remain on the rotarod relative to controls fed a standard diet only: 24 hours and 7 days, FIG. 2
Source text: Four month old Sprague-Dawley rats were first acclimated to oral gavage with administration of tap water once daily for a period of 5 days. The rats were then divided into 5 groups, and fed either a standard diet (SD), a ketogenic diet (KD), or a standard diet supplemented with a once daily oral gavage of a ketone supplement (Table 1). The ketone supplement was selected from the ketone ester 1,3-butanediol-acetoacetate diester (SD+KE), the ketone salt β-hydroxybutyrate mineral salt (SD+KS), or β-hydroxybutyrate mineral salt and a medium chain triglyceride (SD+KSMCT). Ketone supplements were provided at a dose of 5 g/kg of body weight. Each group of animals was maintained on the respective diets for 7 days. The animals were evaluated for motor performance prior to the beginning of dietary treatment, 24 hours after treatment, and after 7 days of dietary treatment.
Motor performance was evaluated using the accelerating rotarod test on a Rota Rod
Rotamex 5 (Columbus Instruments). The rats were placed on the rod of the accelerating rotarod and the time the animals remained on the rod was measured; the rotarod was set to accelerate to 40 rpm over 180 seconds. Prior to the administration of a test, animals were trained on the rotarod for 5 consecutive days. Each day of training consisted of 3 trials, with a 2 minute rest period between each trial. Animals were placed on the rotarod and timed until they fell from the rotating rod.
The ketone ester, 1,3-butanediol-acetoacetate diester, was synthesized as previously described (Agostino et al., Am J Physiol; 304(10): R829-R836 (2013)). The ketone salt, β-hydroxybutyrate mineral salt (Na^+/K^+-βHB mineral salt) was mixed into a 50% solution by adding approximately 375 mg/g of pure βHB with 125 mg/g of Na^+/K^+. Accordingly, each dose of the mineral salt was equal to about 1000-1500 mg of βHB, depending on the weight of the animal. Both the ketone ester and the ketone salt were developed and synthesized in collaboration with SavInd, Inc. Pharmaceutical grade medium chain triglyceride (MCT) oil (about 65% caprylic triglyceride) was purchased from Now Foods (Bloomingdale, Ill., USA). MCT was mixed in a 1:1 ratio with β-hydroxybutyrate mineral salt to obtain a ketone salt with MCT, and in a 1:1 ratio with 1,3-butanediol-acetoacetate diester to obtain […] with MCT.

[1] = test system: glucose transporter type 1 (G1D)-deficient mice; assay: hanging wire test, G1D mice; format: in vivo; conditions: fed for 10 weeks, FIG. 9
Source text: (§1) A group of 48 G1D mice, aged 2-5 months old, were fed for 10 weeks with either a standard rodent diet (SD), a ketogenic diet (KD), a standard diet supplemented with 10% ketone ester (SD+KE) or a standard diet supplemented with 20% ketone mineral salt (SD+KS).

[2] = test system: glucose transporter type 1 (G1D)-deficient mice; assay: rotarod test, G1D mice; format: in vivo; conditions: for motor performance on the rotarod test: 6 weeks of feeding
Source text: as §1

WAG/Rij rats = assay: accelerated rotarod test, WAG/Rij rats; format: in vivo, rat; conditions: 2.5 g/kg total oral gavage daily for 7 days, about 45 minutes after treatment, FIG. 6 and FIG. 7
Procedure: WAG/Rij rats were first acclimated to oral gavage with administration of tap water once daily for a period of 3 days. About 45 minutes after the water gavage on the third day, the animals performed the accelerated rotarod test to establish a baseline. After three trials on the rotarod, blood samples were taken to measure baseline glucose and ketone body levels (blood samples were collected about 60 minutes after the gavage).
One day later, the rats were divided into 6 groups, and given an oral gavage supplement selected from water, the ketone ester 1,3-butanediol-acetoacetate diester (KE), the ketone ester with medium chain triglyceride (KEMCT), the ketone salt β-hydroxybutyrate mineral salt (KS), the ketone salt with medium chain triglyceride (KSMCT), or a combination of the ketone ester and the ketone salt (KEKS) (Table 3). Supplements containing the ketone ester or the ketone salt alone were provided at a dose of 2.5 g/kg of body weight. For supplements containing two components (e.g., a ketone ester with MCT, a ketone salt with MCT, a ketone ester with a ketone salt), each component was provided at a dose of 1.25 g/kg of body weight (for a total dosage of 2.5 g/kg). The animals were treated every day for 7 days.
About 45 minutes after the 7th treatment, the rats were evaluated on the accelerated rotarod test. […]

Compound	motor function (accelerating rotarod) compared to the control group (Sprague-Dawley rats)	time able to remain on the rotarod relative to controls fed a standard diet only (Sprague-Dawley rats)	course of improvement on the hanging wire test [1]	strength endurance (hanging wire test) [1]	motor performance on the rotarod test [2]	motor function on the rotarod test ([2]; 10 weeks of feeding)	motor function (accelerated rotarod) (WAG/Rij rats)	performance on the rotarod test vs baseline levels ([2]; by 4 weeks of feeding, FIG. 8)
β-hydroxybutyrate mineral salt [ketone salt]	improvement in motor function	able to remain on the rotarod for longer periods of time	rapid improvement beginning at week 1	improved	increase in motor function	increase in motor function	not sufficient to improve motor function	–
CC(=O)CC(=O)OCCC(C)OC(=O)CC(C)=O (stereo not drawn) [ketone ester, 1,3-butanediol-acetoacetate diester]	improvement in motor function	able to remain on the rotarod for longer periods of time	–	–	increase in motor performance	–	not sufficient to improve motor function	significant increase in performance on the rotarod test
